The values that follow come from patent US9156790B2, “Anticancer P21-activated kinase inhibitors” (Ohio State Innovation Foundation, priority 2013, dated 2015).

One experiment has as its system BCPAP cells. Description: MTT cell viability assay, BCPAP. The experiment is classed as cell-based, Human. As to conditions: 72-hours of exposure, 1% FBS, mean±standard deviation (n=3), read-out: IC50 for reducing viability of BCPAP cells versus DMSO control. From the text:
(§1) Human thyroid cancer BCPAP, TPC1, and FTC133 cell lines were the generous gifts of Drs. Rebecca Schweppe and Bryan Haugen (University of Colorado Denver) (Schweppe et al., The Journal of clinical endocrinology and metabolism 83:4331-4341 (2008)) with permission from the following originating laboratories: BCPAP—Dr. Fabien, Centre Hospitalier Lyon-Sud, France (Fabien et al., Cancer 73:2206-2212 (1994)); TPC1—Dr. Sato, Kanazawa University, Japan (Tanaka et al., Virology 161:62-411 (1987)); and FTC133—Dr. Goretzki, University of Leipzig, Germany (Goretzki et al., Recent Results Cancer Res 118:48-63 (1990)). The obtained cell lines were confirmed for identity by DNA fingerprinting. BCPAP was grown in RPMI 1640 medium (Life Technologies Co., Carlsbad, Calif.) while FTC133 and TPC1 were grown in DMEM (Life Technologies Co.), both supplemented with 10% fetal bovine serum (FBS) and NEAA unless as noted for experiments.
(§2) The effect of OSU-03012 and its derivatives on cell viability was assessed by using the 3-(4,5-dimethylthiazol-2-yl)-2,5-diphenyl-2H-tetrazolium bromide (MTT) assay. Three replicates were performed in each individual experiment, and experiments were repeated at least three separate times. Cells were grown in 96-well plates for 24 hours and were exposed to various concentrations of drugs dissolved in DMSO (final concentration 0.1%) in RPMI 1640 or DMEM containing 1% FBS for 72 hours. 10 μL of 0.5 mg/ml MTT was added to each well and cells were incubated in CO2 at 37° C. for 2 hours. Supernatants were removed from the wells, the reduced MTT dye was solubilized in 100 μL of solution C (12 ml of 1N HCl in 300 mL of isopropanol), and absorbance at 570 nm was determined on a microplate reader.
(§3) We assessed the ability of the compounds to reduce cell viability in vitro by MTT assay after 72 hours of continuous exposure. Results are shown in Table 1 and are depicted as the IC50 vs. simultaneously performed DMSO control.
(§4) ^aThe reported IC50 values are concentrations at which BCPAP, FTC133 and TPC1 cell viability by MTT assays 50% of DMSO control after 72-hours of exposure. Data are presented as mean±standard deviation (n=3). PAK and PDK1 Selectivity In Vivo
A general note: Formazan colour is commonly taken as a measure of viable cells.

The next experiment has as its system FTC133 cells. Description: MTT cell viability assay, FTC133. The experiment is classed as cell-based, Human. The settings on record: 1% FBS, mean±standard deviation (n=3), read-out: IC50 for reducing viability of FTC133 cells versus DMSO control.
Text: as §1, §2, §3, §4

The next experiment deals with TPC1 cells. Description: MTT cell viability assay, TPC1. In kind it is cell-based, Human. As to conditions: 1% FBS, mean±standard deviation (n=3), read-out: IC50 for reducing viability of TPC1 cells versus DMSO control.
Text: as §1, §2, §3, §4

The target in another experiment is T1, Recombinant active PAK 1 (Homo sapiens, UniProt Q13153).
T1 construct: purchased Calbiochem
T1 sequence (Q13153 whole entry): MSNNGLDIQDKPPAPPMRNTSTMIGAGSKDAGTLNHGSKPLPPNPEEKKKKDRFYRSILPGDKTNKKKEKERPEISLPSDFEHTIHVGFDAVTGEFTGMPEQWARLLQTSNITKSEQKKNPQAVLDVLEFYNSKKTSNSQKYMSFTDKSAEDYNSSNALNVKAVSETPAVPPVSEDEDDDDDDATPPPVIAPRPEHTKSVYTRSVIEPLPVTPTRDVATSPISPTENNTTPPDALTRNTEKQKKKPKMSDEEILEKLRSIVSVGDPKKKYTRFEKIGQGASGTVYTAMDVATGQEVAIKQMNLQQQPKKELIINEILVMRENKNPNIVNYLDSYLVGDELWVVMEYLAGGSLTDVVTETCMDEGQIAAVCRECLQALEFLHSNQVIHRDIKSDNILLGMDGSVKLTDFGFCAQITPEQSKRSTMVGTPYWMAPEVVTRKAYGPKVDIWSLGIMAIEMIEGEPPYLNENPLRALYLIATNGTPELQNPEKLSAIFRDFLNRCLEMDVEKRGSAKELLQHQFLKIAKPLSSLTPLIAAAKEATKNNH
Put plainly: In vitro PAK1 kinase assay (MBP substrate, 32P-ATP). The experiment is classed as biochemical. The settings on record: for Relative PAK1 inhibitory potency (comparison in words): in vitro kinase assay, comparison between compounds / with OSU-03012; for Inhibition of PAK1 kinase activity in initial screen: 7.5 μM inhibitor, 2.5 μM ATP, myelin basic protein substrate (FIG. 2A). Here is the method:
Recombinant active PAK 1 (Calbiochem) was incubated with selected derivatives or 0.1% DMSO in the presence or absence of MBP (Sigma) in a 1× kinase buffer (Cell Signaling). The addition of [γ-32P]-ATP (2.5 μCi/reaction) (Perkin Elmer) started the reaction, which was incubated at 30° C. for 30 minutes. The reaction was terminated by the addition of EDTA. Results were obtained after visualization of ^32P-labeled MBP after separation on 12% polyacrylamide gels and autoradiography. For the Lineweaver-Burk plot analysis, the ratio of radioactive ATP to nonradioactive ATP was not altered. The PAK1 kinase activities are the means of three independent experiments quantified using P81 phosphocellulose paper by a scintillation counter after three washes with 0.75% phosphoric acid.
Screening of OSU-03012 Derivatives to Identify PAK1 Inhibitors. The 17 derivatives along with OSU-03012, each at 7.5 μM, were screened for their ability to inhibit PAK1 activity by in vitro PAK1 kinase assay. The dose was chosen (above the IC50 of OSU-03012) to allow OSU-03012 to serve as a robust positive control. The PAK1 kinase assay was performed using recombinant active PAK1 with myelin basic protein as substrate in the presence of 2.5 μM ATP and 7.5 μM of respective inhibitors.
To further investigate these six compounds, dose-response studies on PAK1 activity were performed by using PAK1 kinase assay. […] We next questioned whether compounds 4 or 15 inhibited PAK1 in an ATP competitive manner as their parent compound OSU-03012.

Where [1] appears, read: Homo sapiens, FTC-133, 72-hours of exposure.
[2] abbreviates: Homo sapiens, TPC1, 72-hours of exposure.

Like-named read-outs stand apart in the source and are kept apart here. Some results are limits rather than exact numbers.

As a reminder, the IC50 is the concentration needed to halve the response being measured. Regarding `NCCC(=O)Nc1ccc(-n2nc(CO)cc2-c2ccc3c(ccc4ccccc43)c2)cc1` [Compound 12, 3-Amino-N-(4-(3-(hydroxymethyl)-5-(phenanthren-2-yl)-1H-pyrazol-1-yl)phenyl)-propanamide], the IC50 stood at 3.76 ± 1.2 µM with BCPAP cells (Homo sapiens, BCPAP); 7.55 ± 2.19 µM with FTC133 cells (setting [1]); 5.83 ± 1.73 µM in the experiment with TPC1 cells (setting [2]).
Turning to `CNC(=O)c1cc(-c2ccc3c(ccc4ccccc43)c2)n(-c2ccc(NC(=O)CN)cc2)n1` [Compound 8, 1-(4-(2-Aminoacetamido)phenyl)-N-methyl-5-(phenanthren-2-yl)-1H-pyrazole-3-carboxamide], the IC50 in the experiment with BCPAP cells (Homo sapiens, BCPAP) came to 2.9 ± 2.35 µM; with FTC133 cells (setting [1]) it was 3.08 ± 1.63 µM; in the experiment with TPC1 cells (setting [2]), 4.67 ± 4.16 µM.
Consider `NCC(=O)Nc1ccc(-n2nc(CO)cc2-c2ccc3ccc4ccccc4c3c2)cc1` [Compound 9, 2-Amino-N-(4-(3-(hydroxymethyl)-5-(phenanthren-3-yl)-1H-pyrazol-1-yl)phenyl)-acetamide], for which the IC50 with BCPAP cells (Homo sapiens, BCPAP) is 4.04 ± 1.38 µM; in the experiment with FTC133 cells (setting [1]), 4.75 ± 2.47 µM; with TPC1 cells (setting [2]) it was 2.42 ± 0.13 µM. The “Relative PAK1 inhibitory potency (comparison in words)” value (from here on “Relative PAK1 inhibitory potency”) at Recombinant active PAK 1 is reported as “did not show any improvement”.
Turning to `CNC(=O)c1cc(-c2ccc3ccc4ccccc4c3c2)n(-c2ccc(N)cc2)n1` [Compound 17, 1-(4-Aminophenyl)-N-methyl-5-(phenanthren-3-yl)-1H-pyrazole-3-carboxamide], the 50% inhibitory concentration (IC50) with BCPAP cells (Homo sapiens, BCPAP) was more than 10 µM; with FTC133 cells (setting [1]) it was more than 10 µM; in the experiment on TPC1 cells (setting [2]), 8.96 ± 1.17 µM. Also, at Recombinant active PAK 1, the “Relative PAK1 inhibitory potency” value was “did not show any activity”.
In the case of `NCC(=O)Nc1ccc(-n2nc(CO)cc2-c2ccc3c(ccc4ccccc43)c2)cc1` [Compound 10, 2-Amino-N-(4-(3-(hydroxymethyl)-5-(phenanthren-2-yl)-1H-pyrazol-1-yl)phenyl)-acetamide], the IC50 with BCPAP cells (Homo sapiens, BCPAP) stood at 6.53 ± 2.16 µM; with FTC133 cells (setting [1]), 8.95 ± 0.57 µM; with TPC1 cells (setting [2]), 7.39 ± 1.9 µM. Moreover, at Recombinant active PAK 1, the “Inhibition of PAK1 kinase activity in initial screen” value is “inhibited PAK1 kinase activity”. Also, the “Relative PAK1 inhibitory potency” value on Recombinant active PAK 1 is on record as “more potent activity”.
The corresponding values for `NCC(=O)Nc1ccc(-n2nc(C(F)(F)F)cc2-c2ccc3ccc4ccccc4c3c2)cc1` [Compound 3, 2-Amino-N-(4-(5-(phenanthren-3-yl)-3-(trifluoromethyl)-1H-pyrazol-1-yl)phenyl)-acetamide] are 2.34 ± 0.27 µM, 5.32 ± 4.05 µM, 3.17 ± 1.29 µM, “inhibited PAK1 kinase activity” and “slightly more potent”.
For `NCC(=O)Nc1ccc(-n2nc(C(=O)NCc3ccccc3)cc2-c2ccc3ccc4ccccc4c3c2)cc1` [Compound 1, 1-(4-(2-Aminoacetamido)phenyl)-N-benzyl-5-(phenanthren-3-yl)-1H-pyrazole-3-carboxamide], the IC50 stood at 2.01 ± 0.59 µM in the experiment with BCPAP cells (Homo sapiens, BCPAP); 4.78 ± 4.53 µM in the experiment on FTC133 cells (setting [1]); 2.6 ± 0.81 µM in the experiment with TPC1 cells (setting [2]). For the same compound, the “Inhibition of PAK1 kinase activity in initial screen” value at Recombinant active PAK 1 is recorded as “inhibited PAK1 kinase activity”.
As for `CNC(=O)c1cc(-c2ccc3ccc4ccccc4c3c2)n(-c2ccc(NC(=O)CCN)cc2)n1` [Compound 13, 1-(4-(3-Aminopropanamido)phenyl)-N-methyl-5-(phenanthren-3-yl)-1H-pyrazole-3-carboxamide], the IC50 with BCPAP cells (Homo sapiens, BCPAP) was determined as 2.76 ± 1.56 µM; in the experiment on FTC133 cells (setting [1]), 4.95 ± 3.21 µM; with TPC1 cells (setting [2]), 3.62 ± 0.42 µM. Further, the “Relative PAK1 inhibitory potency” value on Recombinant active PAK 1 is on record as “more potent”.
In the case of `CNC(=O)c1cc(-c2ccc3c(ccc4ccccc43)c2)n(-c2ccc(NC(=O)CCN)cc2)n1` [Compound 14, 1-(4-(3-aminopropanamido)phenyl)-N-methyl-5-(phenanthren-2-yl)-1 μl-pyrazole-3-carboxamide], the IC50 with BCPAP cells is 3.32 ± 1.09 µM; with FTC133 cells (72-hours of exposure), 5.42 ± 1.56 µM; with TPC1 cells (72-hours of exposure) it was 5.98 ± 0.28 µM. Also, the “Relative PAK1 inhibitory potency” value at Recombinant active PAK 1 is “more potent”.
Consider `CCNC(=O)c1cc(-c2ccc3ccc4ccccc4c3c2)n(-c2ccc(NC(=O)CN)cc2)n1` [Compound 2, 1-(4-(2-aminoacetamido)phenyl)-N-ethyl-5-(phenanthren-3-yl)-1H-pyrazole-3-carboxamide], for which the IC50 in the experiment on BCPAP cells (Homo sapiens, BCPAP) was 2.67 ± 0.82 µM; with FTC133 cells (setting [1]), 4.83 ± 4.47 µM; in the experiment on TPC1 cells (setting [2]) it was 1.81 ± 1.24 µM.
For `CNC(=O)c1cc(-c2ccc3c(ccc4ccccc43)c2)n(-c2ccc(N)cc2)n1` [Compound 5, 1-(4-Aminophenyl)-N-methyl-5-(phenanthren-2-yl)-1H-pyrazole-3-carboxamide], the IC50 in the experiment on BCPAP cells (Homo sapiens, BCPAP) is more than 10 µM; in the experiment with FTC133 cells (setting [1]), 5.03 ± 0.25 µM; in the experiment on TPC1 cells (setting [2]), more than 10 µM. On Recombinant active PAK 1, the “Relative PAK1 inhibitory potency” value is listed as “did not show any activity”.
As to `Nc1ccc(-n2nc(CO)cc2-c2ccc3ccc4ccccc4c3c2)cc1` [Compound 16, (1-(4-Aminophenyl)-5-(phenanthren-3-yl)-1H-pyrazol-3-yl)methanol], the IC50 was more than 10 µM in the experiment with BCPAP cells (Homo sapiens, BCPAP); more than 10 µM with FTC133 cells (setting [1]); 4.32 ± 2.18 µM in the experiment with TPC1 cells (setting [2]). Also, on Recombinant active PAK 1, the “Relative PAK1 inhibitory potency” value is on record as “did not show any activity”.
“1-(4-Aminophenyl)-5-(phenanthren-2-yl)-1H-pyrazol-3-yl) methanol [Compound 6]”: the IC50 in the experiment on BCPAP cells, in the experiment on FTC133 cells (72-hours of exposure) and in the experiment on TPC1 cells (72-hours of exposure) was more than 10 µM each time. Moreover, the “Relative PAK1 inhibitory potency” value at Recombinant active PAK 1 is “did not show any activity”.
As for `CNC(=O)c1cc(-c2ccc3ccc4ccccc4c3c2)n(-c2ccc(NC(=O)CN)cc2)n1` [Compound 7, 1-(4-(2-aminoacetamido)phenyl)-N-methyl-5-(phenanthren-3-yl)-1H-pyrazole-3-carboxamide], the IC50 stood at 3.71 ± 1.82 µM in the experiment with BCPAP cells (Homo sapiens, BCPAP); 4.53 ± 2.57 µM with FTC133 cells (setting [1]); 3.67 ± 1.52 µM in the experiment with TPC1 cells (setting [2]).
